{"source": "patent US20060171971A1", "about": "“Composition for wet wipes containing a non-irritating skin health benefit ingredient and the process for making” (The Procter & Gamble Company, priority 2005, published 2006)", "key": {"[1]": {"system": "EPIDERM™ cultures", "test": "Epiderm culture viability, MTT assay", "assay_type": "cell-based, human", "settings": "mixed with IIBM, 16 hours, normalized to water control", "text": "(§1) Epiderm Culture Assay With Quantification of IL-1α and Viability\n(§2) In order to evaluate the efficacy of the materials and embodiments of the present invention, a bio-engineered human skin construct is used to model the response of normal human epidermis. The EPIDERM™ skin model (as available from MatTek Corporation, Ashland, Mass.) is a three-dimensional, cornified, air-interfaced culture system. Each EPIDERM™ culture has multiple layers of progressively differentiated keratinocytes, closely resembling human epidermis. EPIDERM™ EPI-200-hydrocortisone-free (hereinafter EPI-200-HCF) cultures are used because these cultures show a strong inflammatory response to irritants. Cultures are incubated in medium that is also hydrocortisone-free (EPI-100-MM-HCF). All work with the cultures is carried out under sterile conditions in a biological safety cabinet.\n(§3) Experiments using the EPI-200-HCF cultures are conducted in six-well plates supplied with the cultures. Each well of the plate is filled with 900 microliters of pre-warmed EPI-100-MM-HCF medium, and then one EPI-200-HCF culture insert (shipped in 24-well format) is carefully transferred into the center of each well such that no air bubbles are trapped underneath the insert. After all of the culture inserts are transferred, the six-well plates are incubated in a 37° C., 5% CO2 tissue culture incubator for at least two hours.\n(§4) During the time the cultures are acclimating, the controls and test samples to be applied to the cultures are prepared. Sufficient material is prepared such that quadruplicate cultures can be dosed with about 100 microliters of the control or test sample. Throughout this section, the word “water” refers to autoclaved, Milli-Q water.\n(§5) For each experiment, three controls are run. The first control is water. The second control is a freshly-made solution of 0.125% Triton-X-100 in water, prepared by diluting the 1% Triton-X-100 stock solution shipped with the EPIDERM™ cultures. The third control is infant irritating bowel movement (hereinafter IIBM). IIBM is prepared as described in the PREPARATION OF INFANT […] method of the TEST METHODS section. At the time of use, the required number of tubes of IIBM are thawed at room temperature and 250 microliter aliquots are dispensed into 1.5 ml polypropylene microfuge tubes using a positive displacement pipettor. To each microfuge tube is then added 10 microliters of a 1 N NaOH solution to raise the pH and ensure activity of the fecal enzymes. For the IIBM control, an additional 250 microliters of water is added, and the tube is mixed thoroughly using a vortex mixer.\n(§6) For preparation of the test samples, a suspension in water of the material to be tested is first prepared. As an example, a 1% suspension of zinc oxide in water is prepared by weighing out 0.1 grams of zinc oxide into a 15 ml polypropylene tube (such as Cat No. 21008-935 from VWR) and adding sufficient water to bring the volume to 10 milliliters. Each suspension is vortexed thoroughly and allowed to sit for at least one hour at room temperature prior to use. To ascertain the irritancy of the test sample by itself, the neat suspension is applied to the EPIDERM™ culture. To ascertain the ability of the test sample to reduce the irritancy of IIBM, 250 microliters of the suspension is added to a microfuge tube already containing a 250 microliter aliquot of IIBM plus 10 microliters of 1 N NaOH (as prepared above). […]"}, "[2]": {"system": "IL-1α", "test": "Epiderm culture assay with quantification of IL-1α (test sample mixed with IIBM)", "assay_type": "cell-based, human", "settings": "16 hours", "text": "as §1, §2, §3, §4, §5, §6"}, "[3]": {"test": "Lability method (Zincon metallochromic dye colour change)", "assay_type": "physicochemical", "settings": "30 mg/10 ml water, pH 7-9, Zincon dye", "text": "Particulate zinc materials differ with respect to how strongly the zinc ion (Zn^2+) is held by the counterion or counterions. […] To determine which particulate zinc materials provide labile Zn^2+, a test is developed using a metallochromic dye that changes color upon coordinating Zn 2+. The response is a binary visual assessment of whether or not the color changes, indicating zinc-binding.\nThe method is based on the commercial metallochromic dye Zincon sodium salt (2-carboxy-2′-hydroxy-5′-sulfoformazyl-benzene sodium salt, such as Cat. No. 201332 available from Sigma-Aldrich, St. Louis, Mo.). Zincon changes from an orange to blue color upon binding zinc ion and provides the basis for detecting available Zn 2+. The specific procedure involves making a stock solution of Zincon in ethanol (50 mg/10 ml ethanol). The particulate zinc material is then added to water (30 mg/10 ml water) and agitated vigorously (pH should be 7-9). Three to four drops of Zincon solution are then added to the particulate zinc material in water, agitated, and a visual assessment of color change made."}}, "note": "Where “and” joins values, the source holds several entries; their conditions need not be identical. Equal entries are not always repeated.", "data": [{"compound": "[O]=[Zn]", "note": "[Zinc Oxide, zinc oxide]", "values": [{"measurement": "Normalized EPIDERM Viability", "setting": "[1]; zinc oxide 31 mM (0.25% w/w)", "result": 95, "unit": "%"}, {"measurement": "Normalized EPIDERM Viability", "setting": "[1]; zinc oxide 63 mM (0.5% w/w)", "result": 95, "unit": "%"}, {"measurement": "Normalized EPIDERM Viability", "setting": "[1]; zinc oxide 125 mM (1.0% w/w)", "result": 96, "unit": "%"}, {"measurement": "Mean % IL-1α Reduction", "setting": "[2]; zinc oxide 31 mM (0.25% w/w)", "result": 68, "unit": "%"}, {"measurement": "Mean % IL-1α Reduction", "setting": "[2]; zinc oxide 63 mM (0.5% w/w)", "result": 76, "unit": "%"}, {"measurement": "Mean % IL-1α Reduction", "setting": "[2]; zinc oxide 125 mM (1.0% w/w)", "result": 90, "unit": "%"}, {"measurement": "available (labile) Zn2+, binary visual assessment of colour change", "setting": "[3]", "result": "having available Zn^2+"}]}, {"compound": "O=S(=O)([O-])[O-].[Zn+2]", "note": "[Zinc Sulfate, zinc sulfate]", "values": [{"measurement": "Normalized EPIDERM Viability", "setting": "[1]; zinc sulfate 87 mM (2.5% w/w)", "result": "44% and 28%"}, {"measurement": "Normalized EPIDERM Viability", "setting": "[1]; zinc sulfate 174 mM (5.0% w/w)", "result": "14% and 11%"}, {"measurement": "Mean % IL-1α Reduction", "setting": "[2]; zinc sulfate 87 mM (2.5% w/w)", "result": "99% and 98%"}, {"measurement": "Mean % IL-1α Reduction", "setting": "[2]; zinc sulfate 174 mM (5.0% w/w)", "result": "98% and 99%"}]}, {"compound": "O=C([O-])[O-].[Zn+2]", "note": "[zinc carbonate]", "values": [{"measurement": "available (labile) Zn2+, binary visual assessment of colour change", "setting": "[3]", "result": "having available Zn^2+"}]}, {"compound": "OCC(O)CO.[Zn]", "note": "[zinc monoglycerolate]", "values": [{"measurement": "available (labile) Zn2+, binary visual assessment of colour change", "setting": "[3]", "result": "having available Zn^2+"}]}, {"compound": "zinc stearate", "values": [{"measurement": "available (labile) Zn2+, binary visual assessment of colour change", "setting": "[3]", "result": "having available Zn^2+"}]}]}
